Results as given in patent publication US20090298878A1, “OXIME COMPOUNDS AND THE USE THEREOF” (priority 2006, published 2009).
Where a name gives a salt, the structure may show the parent alone.

Tests used:
[1] = biological target: T1, N-type calcium channel (NTCC) (Homo sapiens, UniProt Q00975); experiment: FLIPR calcium mobilization assay for N-type calcium channel (differentiated IMR32 cells); assay type: cell-based; settings: calcium mobilization in vitro assay, N-type calcium channel blockers
T1 construct: host or cells: IMR32 cells differentiated with dibutyryl cAMP and bromodeoxyuridine
T1 sequence (Q00975 whole entry): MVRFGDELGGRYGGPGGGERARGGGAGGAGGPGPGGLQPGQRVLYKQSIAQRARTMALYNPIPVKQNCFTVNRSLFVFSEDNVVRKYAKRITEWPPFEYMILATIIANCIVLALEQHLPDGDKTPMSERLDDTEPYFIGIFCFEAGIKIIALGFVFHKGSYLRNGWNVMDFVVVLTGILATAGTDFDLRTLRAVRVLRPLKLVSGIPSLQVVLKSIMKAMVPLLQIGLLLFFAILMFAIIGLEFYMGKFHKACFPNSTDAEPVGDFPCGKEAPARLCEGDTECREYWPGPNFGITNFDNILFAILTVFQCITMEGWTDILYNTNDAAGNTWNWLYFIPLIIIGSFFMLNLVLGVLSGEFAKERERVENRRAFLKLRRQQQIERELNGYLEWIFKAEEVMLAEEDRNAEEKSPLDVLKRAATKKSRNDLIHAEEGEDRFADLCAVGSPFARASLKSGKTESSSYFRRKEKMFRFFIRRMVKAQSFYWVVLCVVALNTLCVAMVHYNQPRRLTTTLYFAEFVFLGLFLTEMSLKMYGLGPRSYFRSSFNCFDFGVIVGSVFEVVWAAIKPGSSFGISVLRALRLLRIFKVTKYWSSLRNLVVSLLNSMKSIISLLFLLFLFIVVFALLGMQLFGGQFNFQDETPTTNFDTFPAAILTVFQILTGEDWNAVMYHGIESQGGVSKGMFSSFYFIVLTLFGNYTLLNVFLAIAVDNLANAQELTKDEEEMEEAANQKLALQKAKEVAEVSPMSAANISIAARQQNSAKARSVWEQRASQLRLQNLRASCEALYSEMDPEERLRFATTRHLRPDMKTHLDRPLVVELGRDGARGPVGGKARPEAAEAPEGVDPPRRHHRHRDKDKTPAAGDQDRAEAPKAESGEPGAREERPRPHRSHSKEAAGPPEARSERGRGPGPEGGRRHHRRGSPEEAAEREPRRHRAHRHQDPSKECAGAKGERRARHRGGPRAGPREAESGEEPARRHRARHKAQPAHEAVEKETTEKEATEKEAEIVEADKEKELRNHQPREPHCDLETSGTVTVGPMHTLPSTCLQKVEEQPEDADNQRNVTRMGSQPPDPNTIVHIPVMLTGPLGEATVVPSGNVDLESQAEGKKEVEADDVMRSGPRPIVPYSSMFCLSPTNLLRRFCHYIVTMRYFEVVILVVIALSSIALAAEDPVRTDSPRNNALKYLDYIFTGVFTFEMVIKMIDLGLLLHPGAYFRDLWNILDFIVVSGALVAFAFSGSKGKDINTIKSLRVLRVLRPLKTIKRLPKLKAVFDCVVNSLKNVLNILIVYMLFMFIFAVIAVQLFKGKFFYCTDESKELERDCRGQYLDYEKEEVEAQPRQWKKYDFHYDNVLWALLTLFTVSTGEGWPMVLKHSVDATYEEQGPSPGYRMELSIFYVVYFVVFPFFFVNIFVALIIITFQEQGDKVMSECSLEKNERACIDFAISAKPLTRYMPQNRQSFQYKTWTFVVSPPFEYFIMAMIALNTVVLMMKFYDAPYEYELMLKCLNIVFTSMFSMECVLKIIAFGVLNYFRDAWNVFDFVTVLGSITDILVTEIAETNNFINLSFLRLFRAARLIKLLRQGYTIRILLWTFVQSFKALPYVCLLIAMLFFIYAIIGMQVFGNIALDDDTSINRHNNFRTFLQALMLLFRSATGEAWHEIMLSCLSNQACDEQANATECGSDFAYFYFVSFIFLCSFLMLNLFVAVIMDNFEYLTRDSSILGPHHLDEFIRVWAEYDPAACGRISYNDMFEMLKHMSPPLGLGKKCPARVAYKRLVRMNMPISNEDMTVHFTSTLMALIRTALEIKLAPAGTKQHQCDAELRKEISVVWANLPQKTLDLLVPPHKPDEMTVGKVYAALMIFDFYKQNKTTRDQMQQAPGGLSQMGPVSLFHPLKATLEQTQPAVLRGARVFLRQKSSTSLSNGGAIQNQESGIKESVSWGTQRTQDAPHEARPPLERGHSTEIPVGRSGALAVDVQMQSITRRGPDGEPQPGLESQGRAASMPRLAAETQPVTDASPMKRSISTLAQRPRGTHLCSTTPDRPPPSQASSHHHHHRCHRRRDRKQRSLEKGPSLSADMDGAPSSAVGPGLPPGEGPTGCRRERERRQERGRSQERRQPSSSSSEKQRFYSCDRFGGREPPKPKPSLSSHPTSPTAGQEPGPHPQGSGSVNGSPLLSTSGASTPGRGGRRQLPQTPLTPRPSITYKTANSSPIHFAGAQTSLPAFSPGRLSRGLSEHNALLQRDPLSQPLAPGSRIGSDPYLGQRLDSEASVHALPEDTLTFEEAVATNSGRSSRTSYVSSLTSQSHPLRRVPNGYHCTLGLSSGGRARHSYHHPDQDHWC
Summary of the method: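 Human IMR32 cells differentiated 8 days (1 mM dibutyryl cAMP, 2.5 μM BrdU), pre-stimulated 1 h with 90 mM KCl plus compound (~846 pM–17 μM) and 5 μM nitrendipine, Fluo-4 loaded. FLIPR read basal fluorescence 315 s, then 90 mM KCl agonist added and fluorescence recorded 45 s; non-linear regression.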

[2] = biological target: T2, L-type calcium channel (LTCC) subunits (α1c, α2δ, and β1) (Rattus norvegicus, UniProt P22002); experiment: FLIPR calcium mobilization assay for L-type calcium channel (HEK293 cells expressing recombinant rat LTCC subunits); assay type: cell-based; settings: calcium mobilization in vitro assay, L-type calcium channel blockers
T2 construct: expressed in transfected cells; pcDNA6.2DEST for α1c, pcDNA3.2DEST for β1, pcDNA3.1-Zeo for α2δ
T2 sequence (P22002 whole entry): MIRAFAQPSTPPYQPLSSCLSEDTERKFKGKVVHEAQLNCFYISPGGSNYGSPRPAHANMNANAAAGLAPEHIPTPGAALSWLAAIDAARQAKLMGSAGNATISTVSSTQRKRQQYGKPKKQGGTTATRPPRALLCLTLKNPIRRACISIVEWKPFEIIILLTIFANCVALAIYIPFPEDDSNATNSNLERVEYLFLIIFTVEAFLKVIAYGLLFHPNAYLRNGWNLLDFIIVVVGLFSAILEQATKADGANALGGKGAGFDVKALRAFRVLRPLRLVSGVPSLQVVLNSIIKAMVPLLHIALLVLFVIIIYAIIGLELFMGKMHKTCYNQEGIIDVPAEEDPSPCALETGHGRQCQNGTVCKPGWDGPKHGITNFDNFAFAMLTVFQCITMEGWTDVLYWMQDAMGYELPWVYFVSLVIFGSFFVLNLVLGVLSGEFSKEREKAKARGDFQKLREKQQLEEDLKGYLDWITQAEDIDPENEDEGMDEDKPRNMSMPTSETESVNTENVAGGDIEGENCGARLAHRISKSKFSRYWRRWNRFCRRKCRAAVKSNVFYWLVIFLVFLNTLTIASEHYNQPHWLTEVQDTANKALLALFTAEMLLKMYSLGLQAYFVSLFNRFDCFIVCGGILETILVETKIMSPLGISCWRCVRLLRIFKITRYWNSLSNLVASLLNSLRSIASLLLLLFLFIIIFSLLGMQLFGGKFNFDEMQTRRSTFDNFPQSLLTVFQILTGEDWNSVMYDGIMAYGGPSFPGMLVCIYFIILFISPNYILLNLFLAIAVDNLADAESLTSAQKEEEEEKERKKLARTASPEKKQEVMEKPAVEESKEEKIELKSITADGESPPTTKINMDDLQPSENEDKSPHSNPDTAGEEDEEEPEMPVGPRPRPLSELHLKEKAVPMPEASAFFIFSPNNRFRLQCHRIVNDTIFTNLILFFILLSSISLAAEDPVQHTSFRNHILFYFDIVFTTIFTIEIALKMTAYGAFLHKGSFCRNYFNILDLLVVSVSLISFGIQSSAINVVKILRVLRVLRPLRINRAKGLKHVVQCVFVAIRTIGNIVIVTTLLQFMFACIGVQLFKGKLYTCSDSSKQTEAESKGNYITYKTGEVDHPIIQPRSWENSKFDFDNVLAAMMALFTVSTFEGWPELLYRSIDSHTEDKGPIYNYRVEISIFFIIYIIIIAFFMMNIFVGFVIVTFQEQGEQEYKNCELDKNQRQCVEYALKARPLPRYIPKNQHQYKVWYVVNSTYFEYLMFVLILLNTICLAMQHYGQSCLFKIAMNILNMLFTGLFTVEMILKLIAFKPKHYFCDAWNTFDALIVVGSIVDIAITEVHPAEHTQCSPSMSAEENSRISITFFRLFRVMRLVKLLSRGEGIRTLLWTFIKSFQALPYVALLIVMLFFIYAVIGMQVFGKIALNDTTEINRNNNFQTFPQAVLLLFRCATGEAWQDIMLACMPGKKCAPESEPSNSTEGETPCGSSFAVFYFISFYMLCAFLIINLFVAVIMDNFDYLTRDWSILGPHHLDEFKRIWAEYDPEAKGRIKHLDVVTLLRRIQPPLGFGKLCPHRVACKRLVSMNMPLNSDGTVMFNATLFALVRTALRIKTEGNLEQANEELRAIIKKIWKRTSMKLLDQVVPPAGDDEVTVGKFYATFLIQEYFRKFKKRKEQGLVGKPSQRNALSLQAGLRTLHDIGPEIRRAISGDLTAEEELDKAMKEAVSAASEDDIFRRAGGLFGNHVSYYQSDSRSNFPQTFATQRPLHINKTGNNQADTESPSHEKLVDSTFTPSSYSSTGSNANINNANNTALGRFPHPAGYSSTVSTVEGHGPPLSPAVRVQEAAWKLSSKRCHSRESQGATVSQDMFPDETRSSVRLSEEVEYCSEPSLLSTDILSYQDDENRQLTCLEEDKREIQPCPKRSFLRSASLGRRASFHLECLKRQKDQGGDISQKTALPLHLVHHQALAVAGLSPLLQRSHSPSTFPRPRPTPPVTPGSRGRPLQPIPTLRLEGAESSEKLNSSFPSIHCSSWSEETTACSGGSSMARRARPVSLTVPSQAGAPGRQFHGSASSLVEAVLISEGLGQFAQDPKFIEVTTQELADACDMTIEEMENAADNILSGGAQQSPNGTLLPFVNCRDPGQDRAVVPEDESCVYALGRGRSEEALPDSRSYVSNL
Description: Recombinant human embryonal kidney cells (HEK293, ATCC) stably transfected with either N-type calcium channel (NTCC) subunits (α1b, α2δ, and β3) or L-type calcium channel (LTCC) subunits (α1c, α2δ, and β1) were routinely cultured in growth medium consisting of Dulbecco's Modified Eagles Medium containing 10% FBS, 100 U/mL penicillin, 100 μg/mL streptomycin, 4 mM L-glutamine, 500 μg/mL geneticin (G418), 20 μg/mL Blasticidin S (InVivogen, San Diego, Calif.) and 500 μg/mL zeocin (InVivogen).
FLIPR Calcium Mobilization Assay for L-type Calcium Channel. One day prior to performing this assay, HEK293 cells stably expressing recombinant rat L-type calcium channel (LTCC) subunits (α1c, α2δ, and β1) were trypsinized, then seeded on poly-D-lysine-coated 96-well clear-bottom black plates (Becton Dickinson, Franklin Lakes, N.J.) at 75,000 cells/well. On the day of the assay, the plates were washed with LTCC wash buffer (127 mM NaCl, 2 mM MgCl2, 700 μM NaH2PO4, […], 5 mM NaHCO3, 8 mM HEPES, 10 mM glucose, pH 7.4), then loaded with 0.1 mL of LTCC wash buffer containing Fluo-4 (3 μM final concentration, Molecular Probes, Eugene, Oreg.). After 1 hour, the cells were washed with 0.1 mL LTCC wash buffer and resuspended in 0.05 mL LTCC assay buffer (same composition as LTCC wash buffer). Plates were then transferred to a FLIPR^96 for assay. The FLIPR measured basal Fluo-4 fluorescence for 15 seconds, then added 0.05 mL of each compound tested diluted in LTCC assay buffer at final concentrations ranging from about 846 pM to about 17 μM. Fluo-4 fluorescence was then measured for 5 minutes. 0.1 mL KCl agonist dissolved in LTCC assay buffer was then added to the cells to produce a final concentration of 90 mM KCl, and fluorescence was measured for another 45 seconds. Data were collected over the entire time course and analyzed using Excel, Graph Pad Prism, or an in-house regression analysis software.
Cloning of N- and L-type calcium channel subunit open reading frame cDNAs. Five cDNAs encoding subunits of the rat N- or L-type calcium channels were cloned by PCR amplification in order to reconstitute functional channels in a heterologous system. These were the alpha1b (α1b), beta1 (β1), beta3 (β3), alpha2delta (α2δ), and alpha1c (α1c) subunit cDNAs. The alpha1b subunit cDNA has been described by Dubel et al. in Proc. Natl. Acad. Sci. U.S.A 89: 5058-5062 (1992). The beta1 subunit cDNA has been described by Pragnell et al. in FEBS Lett. 291: 253-258 (1991). The beta3 subunit cDNA has been described by Castellano et al. in J. Biol. Chem. 268: 12359-12366 (1993). The alpha2delta subunit cDNA has been described by Kim et al. in Proc. Natl. Acad. Sci. U.S.A. 89: 3251-3255 (1992). The alpha1c subunit cDNA has been described by Koch et al. in J. Biol. Chem. 265: 17786-17791 (1990).
The 6.5 kb cDNA encoding the L-type calcium channel α1c subunit was cloned by PCR amplification from rat heart cDNA using primers 11 (SEQ ID NO: 11, TABLE 1) and 12 (SEQ ID NO:12, TABLE 1). The PCR fragment was subcloned and fully sequenced on both strands to confirm its identity. A clone matching consensus reference sequence M59786 and rat genomic DNA sequences was recombined into the mammalian expression vector pcDNA6.2DEST. Sequences around the recombinogenic region were sequenced to confirm accurate recombination into the expression vector.
L-type Recombinant Cell Line Development. L-type calcium channel expressing HEK-293 cells were created in two stages. Stage 1 was created as follows. The rat α1c, and β1 cDNA expression constructs (2.5 μg each) were co-transfected into human embryonic kidney (HEK-293) cells by Lipofectamine Plus reagent (Invitrogen), as per manufacturer's instructions. 24 hours later, cells were split in limiting dilution into multiple 96-well plates in selection media containing 20 μg/mL blasticidin and 500 μg/mL geneticin, and incubated for 3 weeks at 37° C., 5% CO2, 95% humidity. […]

IC50 [1] [µM]	IC50 [2] [µM]	Structure (SMILES)
0.16	> 20	O=c1ccc(CON=C2CCN(S(=O)(=O)c3ccc(OC(F)(F)F)cc3)CC2)cn1Cc1ccc(F)cc1 [Example 295, 1-(4-Fluorobenzyl)-5-((1-(4-(trifluoromethoxy)phenylsulfonyl)piperidin-4-ylideneaminooxy)methyl)pyridin-2(1H)-one]
0.22	> 20	CCCCc1ccc(S(=O)(=O)N2CCC(=NOCc3cccc(C#N)c3)CC2)cc1 [Example 77, 3-[1-(4-Butylbenzenesulfonyl)piperidin-4-ylideneaminooxymethyl]benzonitrile]
0.36	> 20	O=S(=O)(c1ccc(OC(F)(F)F)cc1)N1CCC(=NOCc2nc3cc(Cl)cnc3[nH]2)CC1 [Example 308, 1-(4-(Trifluoromethoxy)phenylsulfonyl)piperidin-4-one O-(6-chloro-3H-imidazo[4,5-b]pyridin-2-yl)methyl oxime]
0.82	> 20	Fc1ccc(C(CCCN2CCC(=NOCc3cccc(C(F)(F)F)c3)CC2)c2ccc(F)cc2)cc1 [Example 12, 1-[4,4-Bis-(4-fluorophenyl)butyl]piperidin-4-one O-(3-trifluoromethylbenzyl)oxime oxalate]
0.43	> 20	CCCCc1ccc(S(=O)(=O)N2CCC(=NOCc3cccc(C(F)(F)F)c3)CC2)cc1 [Example 50, 1-(4-Butyl-benzenesulfonyl)piperidin-4-one O-(3-trifluoromethylbenzyl)oxime]
0.33	> 20	O=C(CCC(c1ccc(F)cc1)c1ccc(F)cc1)N1CCC(=NOCc2ccc(C(F)(F)F)cc2)CC1 [Example 30, 1-[4,4-Bis-(4-fluorophenyl)butyryl]piperidin-4-one O-(4-trifluoromethylbenzyl)oxime]

More lines, now with the values behind:

Structure (SMILES)	IC50 [1] [µM]	IC50 [2] [µM]
CC(C)C[C@H](N)C(=O)N1CCC(=NOCc2cccc(C(F)(F)F)c2)CC1 [Example 8, 1-((S)-2-Amino-4-methylpentanoyl)piperidin-4-one O-(3-trifluoromethylbenzyl)oxime hydrochloride]	0.69	9.6
N#Cc1cc(CON=C2CCN(C(c3ccc(F)cc3)c3ccc(F)cc3)CC2)ccc1F [Example 182, 5-((1-(Bis(4-fluorophenyl)methyl)piperidin-4-ylideneaminooxy)methyl)-2-fluorobenzonitrile hydrochloride]	0.69	> 20
CCCCCC(C)ON=C1CCN(S(=O)(=O)c2cccc(C(F)(F)F)c2)CC1 (centres unmarked) [Example 369, 1-(3-(Trifluoromethyl)phenylsulfonyl)piperidin-4-one O-heptan-2-yl oxime]	0.08	> 20
CC(C)C[C@H](N)CC(=O)N1CCC(=NOCc2cccc(C(F)(F)F)c2)CC1 [Example 24, 1-((S)-3-Amino-5-methylhexanoyl)piperidin-4-one O-(3-trifluoromethylbenzyl)oxime oxalate]	0.99	7.2
Fc1ccc(C(CCCN2CCC(=NOCc3cccnc3)CC2)c2ccc(F)cc2)cc1 [Example 16, 1-[4,4-Bis-(4-fluorophenyl)butyl]piperidin-4-one O-pyridin-3-ylmethyloxime dioxalate]	0.26	6.6
O=S(=O)(c1cccc(C(F)(F)F)c1)N1CCC(=NOCC2CCCCC2)CC1 [Example 277, 1-(3-(Trifluoromethyl)phenylsulfonyl)piperidin-4-one O-cyclohexylmethyl oxime]	0.61	> 20
O=C(CCC(c1ccc(F)cc1)c1ccc(F)cc1)N1CCC(=NOCc2ccncc2)CC1 [Example 19, 1-[4,4-Bis-(4-fluorophenyl)butyryl]piperidin-4-one O-pyridin-4-ylmethyloxime oxalate]	0.76	4.9
